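Results reflect a 48-hour exposure of cells in 96-well plates to compound at five concentrations. GI50 marks 50% less growth.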 Calls of active or inactive are those of the source. Rule as the data show it: active = GI50 up to about 1.1 µM and inactive = higher.
Legend:
Test in all cases: DTP human tumour cell line panel, 48 h
[1] = tested on: 786-0
[2] = tested on: A549
[3] = tested on: ACHN
[4] = tested on: BT-549
[5] = tested on: CAKI-1
[6] = tested on: CCRF-CEM
[7] = tested on: COLO 205
[8] = tested on: DU-145
[9] = tested on: EKVX
[10] = tested on: HCC 2998
[11] = tested on: HCT-116
[12] = tested on: HCT-15
[13] = tested on: HL-60
[14] = tested on: HOP-62
[15] = tested on: HOP-92
[16] = tested on: HT-29
[17] = tested on: Hs-578T
[18] = tested on: IGROV-1
[19] = tested on: K562
[20] = tested on: KM12
[21] = tested on: LOX IMVI
[22] = tested on: M14
[23] = tested on: MCF7
[24] = tested on: MDA-MB-231
[25] = tested on: MDA-MB-435
[26] = tested on: MDA-N
[27] = tested on: MOLT-4
[28] = tested on: Malme-3M
[29] = tested on: NCI-H23
[30] = tested on: NCI-H460
[31] = tested on: NCI-H522
[32] = tested on: NCI/ADR-RES
[33] = tested on: OVCAR-3
[34] = tested on: OVCAR-4
[35] = tested on: OVCAR-5
[36] = tested on: OVCAR-8
[37] = tested on: PC-3
[38] = tested on: RXF 393
[39] = tested on: SF-268
[40] = tested on: SF-295
[41] = tested on: SF-539
[42] = tested on: SK-MEL-28
[43] = tested on: SK-MEL-2
[44] = tested on: SK-MEL-5
[45] = tested on: SK-OV-3
[46] = tested on: SN12C
[47] = tested on: SNB-19
[48] = tested on: SNB-75
[49] = tested on: SR
[50] = tested on: SW-620
[51] = tested on: T47D
[52] = tested on: TK-10
[53] = tested on: U-251
[54] = tested on: UACC-257
[55] = tested on: UACC-62
[56] = tested on: UO-31
[57] = tested on: RPMI-8226

CCC(C)C(C(=O)N/N=C1/SCC(=O)N1c1ccccc1)C(=O)N/N=C1/SCC(=O)N1c1ccccc1 (stereo not drawn)
GI50 [1]: > 100 µM (inactive)
GI50 [2]: > 100 µM (inactive)
GI50 [3]: > 100 µM (inactive)
GI50 [4]: > 100 µM (inactive)
GI50 [5]: > 100 µM (inactive)
GI50 [6]: 46.1 µM (inactive)
GI50 [7]: > 100 µM (inactive)
GI50 [8]: 43.5 µM (inactive)
GI50 [9]: > 100 µM (inactive)
GI50 [10]: > 100 µM (inactive)
GI50 [11]: 23 µM (inactive)
GI50 [12]: > 100 µM
GI50 [13]: > 100 µM (inactive)
GI50 [14]: 79.3 µM (inactive)
GI50 [15]: 19 µM (inactive)
GI50 [16]: > 100 µM (inactive)
GI50 [17]: 32.5 µM (inactive)
GI50 [18]: > 100 µM (inactive)
GI50 [19]: > 100 µM (inactive)
GI50 [20]: 27.5 µM (inactive)
GI50 [21]: 38.4 µM (inactive)
GI50 [22]: 47.1 µM (inactive)
GI50 [23]: 34.1 µM (inactive)
GI50 [24]: 28.8 µM (inactive)
GI50 [25]: 17.9 µM (inactive)
GI50 [26]: 27.2 µM (inactive)
GI50 [27]: 36 µM (inactive)
GI50 [28]: 21.2 µM (inactive)
GI50 [29]: 36.6 µM (inactive)
GI50 [30]: > 100 µM (inactive)
GI50 [31]: 56.9 µM (inactive)
GI50 [32]: > 100 µM (inactive)
GI50 [33]: 28.6 µM (inactive)
GI50 [34]: 16.4 µM (inactive)
GI50 [35]: > 100 µM (inactive)
GI50 [36]: 39.7 µM (inactive)
GI50 [37]: > 100 µM (inactive)
GI50 [38]: 16.4 µM (inactive)
GI50 [39]: 44.9 µM (inactive)
GI50 [40]: > 100 µM (inactive)
GI50 [41]: > 100 µM (inactive)
GI50 [42]: 16.9 µM (inactive)
GI50 [43]: 33.7 µM (inactive)
GI50 [44]: 22 µM (inactive)
GI50 [45]: 22.2 µM (inactive)
GI50 [46]: > 100 µM (inactive)
GI50 [47]: > 100 µM (inactive)
GI50 [48]: 44.9 µM (inactive)
GI50 [49]: 40.6 µM (inactive)
GI50 [50]: 41.9 µM (inactive)
GI50 [51]: > 100 µM (inactive)
GI50 [52]: > 100 µM (inactive)
GI50 [53]: 36.8 µM (inactive)
GI50 [54]: > 100 µM (inactive)
GI50 [55]: 20 µM (inactive)
GI50 [56]: > 100 µM (inactive)

O=Cc1cc(C(=O)OCc2ccccc2)n(S(=O)(=O)c2ccccc2)c1
GI50 [1]: 30.7 µM (inactive)
GI50 [2]: 25.8 µM (inactive)
GI50 [3]: 15.6 µM (inactive)
GI50 [4]: 16 µM (inactive)
GI50 [5]: 29.4 µM (inactive)
GI50 [6]: 8.07 µM (inactive)
GI50 [7]: 26.1 µM (inactive)
GI50 [8]: 37 µM (inactive)
GI50 [9]: 23.3 µM (inactive)
GI50 [10]: 17 µM (inactive)
GI50 [11]: 7.5 µM (inactive)
GI50 [12]: 11.1 µM
GI50 [13]: 5.75 µM (inactive)
GI50 [14]: 13.2 µM (inactive)
GI50 [16]: 21.7 µM (inactive)
GI50 [17]: 15.8 µM (inactive)
GI50 [18]: 25.9 µM (inactive)
GI50 [19]: 4.51 µM (inactive)
GI50 [20]: 13.4 µM (inactive)
GI50 [21]: 10.3 µM (inactive)
GI50 [22]: 14.8 µM (inactive)
GI50 [23]: 11.7 µM (inactive)
GI50 [24]: 37.7 µM (inactive)
GI50 [25]: 2.29 µM (inactive)
GI50 [26]: 5.31 µM (inactive)
GI50 [27]: 23 µM (inactive)
GI50 [28]: 30.5 µM (inactive)
GI50 [29]: 20.6 µM (inactive)
GI50 [30]: 23.7 µM (inactive)
GI50 [31]: 40.4 µM (inactive)
GI50 [32]: 31 µM (inactive)
GI50 [33]: 18.7 µM (inactive)
GI50 [34]: 43.5 µM (inactive)
GI50 [35]: 18.6 µM (inactive)
GI50 [36]: 31.9 µM (inactive)
GI50 [37]: 16.6 µM (inactive)
GI50 [38]: 33.7 µM (inactive)
GI50 [39]: 21.1 µM (inactive)
GI50 [40]: 14.4 µM (inactive)
GI50 [41]: 12.7 µM (inactive)
GI50 [42]: 12.8 µM (inactive)
GI50 [43]: 16.8 µM (inactive)
GI50 [44]: 4.84 µM (inactive)
GI50 [45]: 21.6 µM (inactive)
GI50 [46]: 26.3 µM (inactive)
GI50 [47]: 29.2 µM (inactive)
GI50 [48]: 23.1 µM (inactive)
GI50 [49]: 3.47 µM (inactive)
GI50 [51]: 30.5 µM (inactive)
GI50 [52]: 24 µM (inactive)
GI50 [54]: 24.7 µM (inactive)
GI50 [55]: 11 µM (inactive)
GI50 [56]: 12.6 µM (inactive)

Cc1cc2nc(N3C(=O)/C(=C/c4ccc(N(C)C)cc4)N=C3c3ccccc3)sc2cc1C
GI50 [1]: 20.5 µM (inactive)
GI50 [2]: 33.2 µM (inactive)
GI50 [3]: 19.9 µM (inactive)
GI50 [4]: 44.5 µM (inactive)
GI50 [5]: 43.9 µM (inactive)
GI50 [6]: 11.3 µM (inactive)
GI50 [7]: 18 µM (inactive)
GI50 [8]: 50.4 µM (inactive)
GI50 [9]: 23 µM (inactive)
GI50 [10]: 18.9 µM (inactive)
GI50 [11]: 17 µM (inactive)
GI50 [12]: 32.5 µM
GI50 [13]: 16.9 µM (inactive)
GI50 [14]: > 100 µM (inactive)
GI50 [15]: 15.2 µM (inactive)
GI50 [16]: 18.5 µM (inactive)
GI50 [17]: 30.3 µM (inactive)
GI50 [18]: 16.3 µM (inactive)
GI50 [19]: 25.9 µM (inactive)
GI50 [20]: 26 µM (inactive)
GI50 [21]: 30.1 µM (inactive)
GI50 [22]: 26.7 µM (inactive)
GI50 [23]: 0.515 µM (active)
GI50 [24]: 26 µM (inactive)
GI50 [25]: 7.46 µM (inactive)
GI50 [26]: 11.6 µM (inactive)
GI50 [27]: 1.14 µM (inactive)
GI50 [30]: 23 µM (inactive)
GI50 [32]: 28.6 µM (inactive)
GI50 [33]: 41.5 µM (inactive)
GI50 [34]: 29.4 µM (inactive)
GI50 [35]: 22.9 µM (inactive)
GI50 [36]: 32.3 µM (inactive)
GI50 [37]: 15.9 µM (inactive)
GI50 [57]: 23.8 µM (inactive)
GI50 [38]: 18.5 µM (inactive)
GI50 [39]: 40 µM (inactive)
GI50 [40]: 33.6 µM (inactive)
GI50 [41]: 22.2 µM (inactive)
GI50 [42]: 51.9 µM (inactive)
GI50 [43]: 24.1 µM (inactive)
GI50 [44]: 15.2 µM (inactive)
GI50 [45]: > 100 µM (inactive)
GI50 [46]: 18.7 µM (inactive)
GI50 [47]: 54.6 µM (inactive)
GI50 [48]: 22.9 µM (inactive)
GI50 [49]: 6.05 µM (inactive)
GI50 [50]: 24.7 µM (inactive)
GI50 [51]: 31.4 µM (inactive)
GI50 [52]: 58.9 µM (inactive)
GI50 [53]: 32.7 µM (inactive)
GI50 [54]: 27.2 µM (inactive)
GI50 [55]: 20.3 µM (inactive)
GI50 [56]: 24.2 µM (inactive)

Reference: ChEMBL document CHEMBL1201862, “PubChem BioAssay data set” (2004)
